Series [1] is described as follows: Example 2: daily doses of vanoxerine for 11 consecutive days in 12 subjects (PK, heart rate, blood pressure). It counts as in vivo, human. As to conditions: for PK Data (Mean +/- SD) T1/2 / PK Data (Mean +/- SD) CMax: 11 consecutive days.
A short description of series [2]: Preliminary studies of daily use over 7, 10 and 14 days. It is filed as in vivo. The following applies: 75, 100, 125 and 150 mg a day over 7, 10 and 14 days.
Series [3] is described as follows: Example 3: vanoxerine daily for 14 days in fourteen healthy patients. It is filed as in vivo, human. The procedure: A standardized meal was served 15 minutes prior to each dosing.
Series [4] can be described thus: Example 4: vanoxerine daily for 7 days in four patients. It counts as in vivo, human. The following applies: 50, 100 and 150 mg daily, all patients.
Series [5] is described as follows: Recovery of radioactivity labeled vanoxerine in rats. It is filed as in vivo.
The nature of series [6]: Example 1: plasma concentrations of vanoxerine and metabolites after a 300 mg dose in patients. As to conditions: for concentration at 1 h / concentration at 3 h / concentration at 4 h / concentration at 6 h / concentration at 8 h / concentration at 12 h / concentration at 24 h / concentration at 0.5 h: human, plasma, 300 mg; for concentration at 0.5 h: .5 h. It counts as in vivo, human. How it is done:
Each patient gave blood samples before administration of their dose, and then again at nine further time points, 30 minutes after administration, 1, 2, 3, 4, 6, 8, 12, and 24 hours post administration.

A short description of series [7]: Further studies of half-life and steady state on oral dosing. It is filed as in vivo. As to conditions: in some cases.
Series [8] can be described thus: Pharmacokinetic tests in dogs. The following applies: dog, plasma; repetitive dosing in dogs. It is filed as in vivo.
For series [9] the following is noted: cited from earlier work.
In a further series the test system is atrial fibrillation. As to conditions: canines, cited from earlier work.
[10] abbreviates: 10 patients, 1.00 = below LLOQ, read-out: High concentration group average.
[11] abbreviates: 15 patients, 1.00 = below LLOQ, read-out: Low concentration group average.

Like-named read-outs stand apart in the source and are kept apart here.

With `Fc1ccc(C(OCCN2CCN(CCCc3ccccc3)CC2)c2ccc(F)cc2)cc1` [Vanoxerine, 1-[2-[bis(4-fluorophenyl)methoxy]ethyl]-4-(3-phenylpropyl)piperazine], the plasma levels detectable result is given as “not detectable after 8 hours” in series [1] (25 mg daily); “detectable at 24 hours” in [1] (50, 75 and 100 mg doses). Also, the “PK Data (Mean +/- SD) T1/2” value is on record as 49.39 +/− 26.18 hr (4.71-110.57) in series [1] (50 mg daily, range 4.71-110.57); 52.53 +/− 37.46 (10.26-116.67) hr in series [1] (75 mg daily, range 10.26-116.67); 15.38 +/− 43.55 (5.56-125.00) hr in series [1] (100 mg daily, range 5.56-125.00). Besides, the figures for the “PK Data (Mean +/- SD) CMax” value in series [1] (75 mg daily) and in series [1] (100 mg daily) were 27.4 ± 15.5 ng/mL and 40.2 ± 26.6 ng/mL, respectively. The same compound registered a steady state reached in series [1] (50, 75 and 100 mg doses daily) of at most 8 days. The “heart rate and systolic blood pressure” value in series [1] (75 and 100 mg doses daily) was “increased slightly in most subjects”; in series [2], “increased heart rate and systolic blood pressure”. Moreover, the PK linearity result in series [1] (across 50, 75 and 100 mg doses) was “linear and the dose proportional”. For the same compound, in [1] (daily doses), the “half-life of the drug when daily doses are given” value was “increased half-life”. Besides, the Tmax in [1] (human, plasma, printed under the 50 mg line, +- 0.5 hr (0.5-2.0)) was found to be 1.27 h. In addition, the “steady state serum levels reported within” value in [3] (25, 75 and 125 mg daily for 14 days) lay in the range of 9 to 11 days. Besides, the adverse events entry in series [3] (25, 75 and 125 mg daily for 14 days, standardized meal before dosing) was “No significant adverse events”. The “serum levels, dose proportionality” value in [3] (higher doses compared with lower doses) was “disproportionately and statistically greater levels at higher doses”. Besides, in series [4], the steady-state levels achieved entry is on record as “within one week”. Besides, the “recovery of administered radioactivity” value in series [5] is “incomplete”. The concentration at 1 h in [6] (setting [10]) came to 115 ng/mL; in series [6] (setting [11]) it was 40.1 ng/mL. The concentration at 3 h in [6] (setting [10]) turned out to be 156 ng/mL; in series [6] (setting [11]) it was 31.4 ng/mL. The concentration at 4 h was found to be 96.1 ng/mL in [6] (setting [10]) and 24.4 ng/mL in series [6] (setting [11]). Moreover, the concentration at 6 h in series [6] (setting [10]) was found to be 57.1 ng/mL; in [6] (setting [11]), 16.7 ng/mL. Besides, the concentration at 8 h in series [6] (setting [10]) turned out to be 43.2 ng/mL; in [6] (setting [11]), 11.8 ng/mL. The concentration at 12 h in series [6] (setting [10]) turned out to be 29.3 ng/mL; in series [6] (setting [11]) it was 6.31 ng/mL. The concentration at 24 h in [6] (10 patients, read-out: High concentration group average) was 3.07 ng/mL; in series [6] (setting [11]), 5.01 ng/mL. Further, the concentration at 0.5 h turned out to be 37.7 ng/mL in series [6] (setting [10]) and 17 ng/mL in [6] (setting [11]). Besides, the “plasma levels, highest at any time point” value in series [6] (low concentration group) is around 40 ng/mL. Besides, the “steady state achieved within” value in series [7] (oral dosing) is on record as at most 3 days. Besides, the half-life in series [7] (plasma, oral) is at most 125 h; in [8], around 66 h. Moreover, the side-effects result in series [9] (daily repetitive dose of 50 mg) was “no side-effects should be expected”; in series [9] (higher doses), “some effects were seen with regard to concentration difficulties, increase systolic blood pressure, asthenia, and a feeling of drug influence”.
As to `COc1ccccc1OCC(O)CN1CCN(CC(=O)Nc2c(C)cccc2C)CC1` (stereo not drawn) [ranolazine], the anti-AF effect entry in the series with atrial fibrillation (clinically relevant conditions) is on record as “suppress atrial fibrillation”. Moreover, the “effects on ventricular myocardium” value with atrial fibrillation is listed as “minimal effects on ventricular myocardium”.

What is called Tmax is the time at which the peak concentration occurs. For orientation: half-life means the time in which the quantity being followed falls by half. Lower therefore signals rapid decline.
